Measured values taken from patent US6914045B2, “Glycopeptide antibiotics” (Wyeth Holdings Corporation, priority 2001, dated 2005).
≈ marks a conversion by molar mass, not a printed value.

Key:
Staphylococcus sp. = assay: in vitro antibacterial evaluation, MIC by broth dilution; format: cell-based; conditions: broth dilution, 18 hours at 35° C.
Summary of the method: (§1)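 Test organisms, which included recent clinical isolates resistant to methicillin, penicillin and/or vancomycin, were inoculated at 5×10^5 CFU/mL into Muller-Hinton II […] containing antibiotic at 64-0.06 μg/mL. Minimum inhibitory concentrations were then read as the lowest level inhibiting growth.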

Streptococcus sp. = assay: as above; format: cell-based; conditions: broth dilution, 18 hours at 35° C.
Summary of the method: as §1

Escherichia coli = assay: as above; format: cell-based; conditions: 18 hours at 35° C.
Summary of the method: as §1

Enterococcus sp. = assay: as above; format: cell-based; conditions: broth dilution, 18 hours at 35° C.
Summary of the method: as §1

[1] = system: Staphylococcus aureus-SMITH (GC 4543); assay: acute lethal infection in mice; format: in vivo; conditions: acute lethal infection, female CD-1 mice, intraperitoneal challenge, intravenous 30 min. after infection, 7 day survival
Summary of the method: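 Mice (female CD-1, 20+/−2 gm) receive bacteria ip in broth or hog gastric mucin, then test agent iv after 30 min. Median effective dose is calculated from 7 day survival pooled across 3 tests.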

CC(c1ccccc1)C1NC(=O)CNC(=O)C(CO)NC(=O)C(C(O)C2CNC(=N)N2C2OC(CO)C(O)C(O)C2O)NC(=O)C(C(O)C2CNC(=N)N2)NC(=O)C(Cc2ccc(OC3OC(CO)C(OC4OC5COC(Cc6ccc(Cl)cc6)OC5C(O)C4O)C(O)C3O)cc2)NC1=O (stereo not drawn) [Example 120, Cyclo[glycyl-β-methylphenylalanyl-O-[4-O-[4,6-O-(4-chlorophenethylidene)hexopyranosyl]-hexopyranosyl]tyrosyl-3-(2-iminoimidazolidin-4-yl)seryl-3-(3-hexopyranosyl-2-iminoimidazolidin-4-yl)serylseryl]]
MIC Coagulase Negative Staphylococcus (GC 4547) (Staphylococcus sp.): 1 µg/mL (≈ 0.698 µM)
MIC Coagulase Negative Staphylococcus (GC 4548) (Staphylococcus sp.): <0.5 µg/mL
MIC Coagulase Negative Staphylococcus (GC 4549) (Staphylococcus sp.): <0.5 µg/mL
MIC Coagulase Negative Staphylococcus (GC 4551) (Staphylococcus sp.): <0.5 µg/mL
MIC Coagulase Negative Staphylococcus (GC 6257) (Staphylococcus sp.): <0.5 µg/mL
MIC Staphylococcus aureus (ATCC 29213) (Staphylococcus sp.): <0.5 µg/mL
MIC Staphylococcus aureus (GC 1131) (Staphylococcus sp.): <0.5 µg/mL
MIC Staphylococcus aureus (GC 3051) (Staphylococcus sp.): <0.5 µg/mL
MIC Staphylococcus aureus (GC 3053) (Staphylococcus sp.): 1 µg/mL (≈ 0.698 µM)
MIC Staphylococcus aureus (GC 4541) (Staphylococcus sp.): <0.5 µg/mL
MIC Staphylococcus aureus (GC 4542) (Staphylococcus sp.): <0.5 µg/mL
MIC Staphylococcus aureus (GC 4544) (Staphylococcus sp.): <0.5 µg/mL
MIC Staphylococcus aureus (GC 4545) (Staphylococcus sp.): <0.5 µg/mL
MIC Staphylococcus aureus-SMITH (GC 4543) (Staphylococcus sp.): <0.5 µg/mL
MIC Staphylococcus haemolyticus (GC 4546) (Staphylococcus sp.): <0.5 µg/mL
MIC Staphylococcus aureus (GC 1131) (Staphylococcus sp.; inoculum 5×10^5 CFU/mL, strain GC 1131): <0.5 µg/mL
MIC Staphylococcus aureus (ATCC 29213) (Staphylococcus sp.; strain ATCC 29213): <0.5 µg/mL
MIC Staphylococcus aureus (GC 3051) (Staphylococcus sp.; strain GC 3051): <0.5 µg/mL
MIC Staphylococcus aureus (GC 3053) (Staphylococcus sp.; strain GC 3053): 1 µg/mL (≈ 0.698 µM)
MIC Staphylococcus aureus (GC 4541) (Staphylococcus sp.; strain GC 4541): <0.5 µg/mL
MIC Staphylococcus aureus (GC 4542) (Staphylococcus sp.; strain GC 4542): <0.5 µg/mL
MIC Staphylococcus aureus (GC 4544) (Staphylococcus sp.; strain GC 4544): <0.5 µg/mL
MIC Staphylococcus aureus (GC 4545) (Staphylococcus sp.; strain GC 4545): <0.5 µg/mL
MIC Staphylococcus haemolyticus (GC 4546) (Staphylococcus sp.; strain GC 4546): <0.5 µg/mL
MIC Coagulase Negative Staphylococcus (GC 4547) (Staphylococcus sp.; strain GC 4547): 1 µg/mL (≈ 0.698 µM)
MIC Coagulase Negative Staphylococcus (GC 4548) (Staphylococcus sp.; strain GC 4548): <0.5 µg/mL
MIC Coagulase Negative Staphylococcus (GC 4549) (Staphylococcus sp.; strain GC 4549): <0.5 µg/mL
MIC Coagulase Negative Staphylococcus (GC 4551) (Staphylococcus sp.; strain GC 4551): <0.5 µg/mL
MIC Coagulase Negative Staphylococcus (GC 6257) (Staphylococcus sp.; strain GC 6257): <0.5 µg/mL
MIC Staphylococcus aureus-SMITH (GC 4543) (Staphylococcus sp.; strain SMITH GC 4543): <0.5 µg/mL
MIC Streptococcus agalactiae (GC 4564) (Streptococcus sp.; Streptococcus agalactiae (GC 4564)): <0.5 µg/mL
MIC Streptococcus pneumoniae (ATCC 6301) (Streptococcus sp.; Streptococcus pneumoniae (ATCC 6301)): <0.5 µg/mL
MIC Streptococcus pneumoniae (GC 1894) (Streptococcus sp.; Streptococcus pneumoniae (GC 1894)): <0.5 µg/mL
MIC Streptococcus pneumoniae (GC 4565) (Streptococcus sp.; Streptococcus pneumoniae (GC 4565)): <0.5 µg/mL
MIC Streptococcus pyogenes (GC 4563) (Streptococcus sp.; Streptococcus pyogenes (GC 4563)): <0.5 µg/mL
MIC Streptococcus pneumoniae (ATCC 6301) (Streptococcus sp.; strain ATCC 6301): <0.5 µg/mL
MIC Streptococcus pneumoniae (GC 1894) (Streptococcus sp.; strain GC 1894): <0.5 µg/mL
MIC Streptococcus pyogenes (GC 4563) (Streptococcus sp.; strain GC 4563): <0.5 µg/mL
MIC Streptococcus agalactiae (GC 4564) (Streptococcus sp.; strain GC 4564): <0.5 µg/mL
MIC Streptococcus pneumoniae (GC 4565) (Streptococcus sp.; strain GC 4565): <0.5 µg/mL
MIC Escherichia coli (ATCC 25922) (Escherichia coli; strain ATCC 25922): 16 µg/mL (≈ 11.2 µM)
MIC Escherichia coli (GC 4559) (Escherichia coli; strain GC 4559): 16 µg/mL (≈ 11.2 µM)
MIC Escherichia coli (GC 4560) (Escherichia coli; strain GC 4560): <0.5 µg/mL
MIC Enterococcus avium (GC 4558) (Enterococcus sp.; Enterococcus avium (GC 4558)): 1 µg/mL (≈ 0.698 µM)
MIC Enterococcus faecalis (ATCC 29212) (Enterococcus sp.; Enterococcus faecalis (ATCC 29212)): 1 µg/mL (≈ 0.698 µM)
MIC Enterococcus faecalis (GC 2242) (Enterococcus sp.; Enterococcus faecalis (GC 2242)): 1 µg/mL (≈ 0.698 µM)
MIC Enterococcus faecalis (GC 2691) (Enterococcus sp.; Enterococcus faecalis (GC 2691)): 1 µg/mL (≈ 0.698 µM)
MIC Enterococcus faecalis (GC 3059) (Enterococcus sp.; Enterococcus faecalis (GC 3059)): 1 µg/mL (≈ 0.698 µM)
MIC Enterococcus faecalis (GC 4552) (Enterococcus sp.; Enterococcus faecalis (GC 4552)): 1 µg/mL (≈ 0.698 µM)
MIC Enterococcus faecalis (GC 4553) (Enterococcus sp.; Enterococcus faecalis (GC 4553)): 1 µg/mL (≈ 0.698 µM)
MIC Enterococcus faecalis (GC 4554) (Enterococcus sp.; Enterococcus faecalis (GC 4554)): 1 µg/mL (≈ 0.698 µM)
MIC Enterococcus faecalis (GC 6189) (Enterococcus sp.; Enterococcus faecalis (GC 6189)): 1 µg/mL (≈ 0.698 µM)
MIC Enterococcus faecium (GC 2243) (Enterococcus sp.; Enterococcus faecium (GC 2243)): 1 µg/mL (≈ 0.698 µM)
MIC Enterococcus faecium (GC 4556) (Enterococcus sp.; Enterococcus faecium (GC 4556)): 1 µg/mL (≈ 0.698 µM)
MIC Enterococcus faecium (GC 4557) (Enterococcus sp.; Enterococcus faecium (GC 4557)): 1 µg/mL (≈ 0.698 µM)
MIC Enterococcus faecalis (ATCC 29212) (Enterococcus sp.; strain ATCC 29212): 1 µg/mL (≈ 0.698 µM)
MIC Enterococcus faecalis (GC 2242) (Enterococcus sp.; strain GC 2242): 1 µg/mL (≈ 0.698 µM)
MIC Enterococcus faecium (GC 2243) (Enterococcus sp.; strain GC 2243): 1 µg/mL (≈ 0.698 µM)
MIC Enterococcus faecalis (GC 2691) (Enterococcus sp.; strain GC 2691): 1 µg/mL (≈ 0.698 µM)
MIC Enterococcus faecalis (GC 3059) (Enterococcus sp.; strain GC 3059): 1 µg/mL (≈ 0.698 µM)
MIC Enterococcus faecalis (GC 4552) (Enterococcus sp.; strain GC 4552): 1 µg/mL (≈ 0.698 µM)
MIC Enterococcus faecalis (GC 4553) (Enterococcus sp.; strain GC 4553): 1 µg/mL (≈ 0.698 µM)
MIC Enterococcus faecalis (GC 4554) (Enterococcus sp.; strain GC 4554): 1 µg/mL (≈ 0.698 µM)
MIC Enterococcus faecium (GC 4556) (Enterococcus sp.; strain GC 4556): 1 µg/mL (≈ 0.698 µM)
MIC Enterococcus faecium (GC 4557) (Enterococcus sp.; strain GC 4557): 1 µg/mL (≈ 0.698 µM)
MIC Enterococcus avium (GC 4558) (Enterococcus sp.; strain GC 4558): 1 µg/mL (≈ 0.698 µM)
MIC Enterococcus faecalis (GC 6189) (Enterococcus sp.; strain GC 6189): 1 µg/mL (≈ 0.698 µM)
median effective dose (ED50), Staphylococcus aureus-SMITH (GC 4543) [1]: 0.06 mg/kg
